Laboratory results: patent US9296704B2, “Substituted pyrimidines as protein kinase inhibitors” (CELGENE AVILOMICS RESEARCH, INC., priority 2007, dated 2016)

Experiments:
EGFR (WT) = molecular target: T1, EGFR (WT) (Homo sapiens, UniProt P00533); experiment: Omnia continuous-read kinase assay, EGFR (WT); type: biochemical; conditions: read-out: EGFR inhibtion
T1 construct: purchased Invitrogen PV3872
From the text: (§1) The protocol below describes continuous-read kinase assays to measure inherent potency of compounds against active forms of EGFR (WT) and EGFR (T790M/L858R) enzymes. The mechanics of the assay platform are best described by the vendor (Invitrogen, Carlsbad, Calif.) on their website at the following URL: http://www.invitrogen.com/content.cfm?pageid=11338 or http://www.invitrogen.com/site/us/en/home/Products-and-Services/Applications/Drug-Discovery/Target-and-Lead-Identification-and-Validation/KinaseBiology/KB-Misc/Biochemical-Assays/Omnia-Kinase-Assays.html.
(§2) Briefly, 10× stocks of EGFR-WT (PV3872) from Invitrogen and EGFR-T790M/L858R (40350) from BPS Bioscience, San Diego, Calif., 1.13×ATP (AS001A) and appropriate Tyr-Sox conjugated peptide substrates (KCZI001) were prepared in 1× kinase reaction buffer consisting of 20 mM Tris, pH 7.5, 5 mM MgCl2, 1 mM EGTA, 5 mM β-glycerophosphate, 5% glycerol (10× stock, KB002A) and 0.2 mM DTT (DS001A). 5 μL of each enzyme were pre-incubated in a Corning (#3574) 384-well, white, non-binding surface microtiter plate (Corning, NY) for 30 min. at 27° C. with a 0.5 μL volume of 50% DMSO and serially diluted compounds prepared in 50% DMSO. Kinase reactions were started with the addition of 45 μL of the ATP/Tyr-Sox peptide substrate mix and monitored every 30-90 seconds for 60 minutes at λex360/λem485 in a Synergy^4 plate reader from BioTek (Winooski, Vt.). At the conclusion of each assay, progress curves from each well were examined for linear reaction kinetics and fit statistics (R^2, 95% confidence interval, absolute sum of squares). Initial velocity (0 minutes to ˜30 minutes) from each reaction was determined from the slope of a plot of relative fluorescence units vs time (minutes) and then plotted against inhibitor concentration to estimate IC50 from log [Inhibitor] vs Response, Variable Slope model in GraphPad Prism from GraphPad Software (San Diego, Calif.).
(§3) The EGFR-WT- and EGFR T790M/L858R-modified optimized reagent conditions are: • [EGFR-WT]=5 nM, [ATP]=[…], [Y12-Sox]=[…]; and [EGFR-T790M/L858R]=3 nM, [ATP]=[…], [Y12-Sox]=[…].

BTK = BTK (Homo sapiens, UniProt Q06187); experiment: Omnia assay for potency against BTK; type: biochemical; conditions: read-out: BTK Inhibition
From the text: as §1, §2
The Omnia Assay Protocol for potency assessment against BTK is performed in a substantially similar manner as that described in Example 25 above except that the modified BTK-optimized reagent conditions are: • [BTK]=5 nM, [ATP]=[…], [Y5-Sox]=[…] (ATP KMapp ˜[…]).

ITK = molecular target: T2, ITK (Homo sapiens, UniProt Q08881); experiment: Omnia assay for potency against ITK; type: biochemical; conditions: read-out: ITK inhibition
T2 sequence (Q08881 1-620): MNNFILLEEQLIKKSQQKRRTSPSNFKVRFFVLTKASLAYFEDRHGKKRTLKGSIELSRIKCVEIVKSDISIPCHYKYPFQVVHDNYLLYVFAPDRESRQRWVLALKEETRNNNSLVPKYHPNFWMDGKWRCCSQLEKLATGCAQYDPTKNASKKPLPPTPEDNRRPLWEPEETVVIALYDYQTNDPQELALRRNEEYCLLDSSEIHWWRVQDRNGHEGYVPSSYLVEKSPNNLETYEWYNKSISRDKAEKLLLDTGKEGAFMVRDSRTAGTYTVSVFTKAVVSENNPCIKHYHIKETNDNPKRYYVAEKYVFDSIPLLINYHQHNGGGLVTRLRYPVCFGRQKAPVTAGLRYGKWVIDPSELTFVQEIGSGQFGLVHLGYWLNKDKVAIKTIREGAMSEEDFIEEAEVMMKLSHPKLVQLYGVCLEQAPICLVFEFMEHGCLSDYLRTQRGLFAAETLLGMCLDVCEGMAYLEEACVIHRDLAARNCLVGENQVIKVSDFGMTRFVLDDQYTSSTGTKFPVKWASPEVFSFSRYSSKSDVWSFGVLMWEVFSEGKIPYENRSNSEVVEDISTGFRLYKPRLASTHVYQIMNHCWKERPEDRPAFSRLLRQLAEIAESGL
From the text: as §1, §2
This example describes continuous-read kinase assays to measure inherent potency of compound against active forms of ITK enzymes as described in Example 10 above except that the modified ITK-optimized reagent conditions are: • [ITK]=10 nM, [ATP]=25 μM, [Y6-Sox]=10 μM (ATP KMapp=33 μM).

EGFR (T790M/L858R) = molecular target: T3, EGFR (T790M/L858R) (Homo sapiens, UniProt P00533, L858R/T790M); experiment: Omnia continuous-read kinase assay, EGFR (T790M/L858R); type: biochemical; conditions: read-out: EGFR (T790M/L858R) inhibiton
T3 construct: purchased BPS Bioscience 40350
From the text: as §1, §2, §3

ErbB1 = ErbB1 (Homo sapiens, UniProt P00533); experiment: Z'-LYTE biochemical assay, ErbB1 kinase inhibition; conditions: @ 1 μM
Protocol: Compounds of the present invention were assayed as inhibitors of one or more of ErbB1, ErbB2, and/or ErbB4 in a manner substantially similar to the method described by Invitrogen Corp (Invitrogen Corporation, 1600 Faraday Avenue, Carlsbad, Calif., CA; http://www.invitrogen.com/downloads/Z-LYTE_Brochure—1205.pdf) using the Z′-LYTE™ biochemical assay procedure or similar biochemical assay. The Z′-LYTE™ biochemical assay employs a fluorescence-based, coupled-enzyme format and is based on the differential sensitivity of phosphorylated and non-phosphorylated peptides to proteolytic cleavage.

JAK3 = molecular target: T4, JAK3 (Homo sapiens, UniProt P52333); experiment: Omnia assay for potency against JAK3; type: biochemical; conditions: read-out: JAK3 Inhibition
T4 sequence (P52333 1-1124): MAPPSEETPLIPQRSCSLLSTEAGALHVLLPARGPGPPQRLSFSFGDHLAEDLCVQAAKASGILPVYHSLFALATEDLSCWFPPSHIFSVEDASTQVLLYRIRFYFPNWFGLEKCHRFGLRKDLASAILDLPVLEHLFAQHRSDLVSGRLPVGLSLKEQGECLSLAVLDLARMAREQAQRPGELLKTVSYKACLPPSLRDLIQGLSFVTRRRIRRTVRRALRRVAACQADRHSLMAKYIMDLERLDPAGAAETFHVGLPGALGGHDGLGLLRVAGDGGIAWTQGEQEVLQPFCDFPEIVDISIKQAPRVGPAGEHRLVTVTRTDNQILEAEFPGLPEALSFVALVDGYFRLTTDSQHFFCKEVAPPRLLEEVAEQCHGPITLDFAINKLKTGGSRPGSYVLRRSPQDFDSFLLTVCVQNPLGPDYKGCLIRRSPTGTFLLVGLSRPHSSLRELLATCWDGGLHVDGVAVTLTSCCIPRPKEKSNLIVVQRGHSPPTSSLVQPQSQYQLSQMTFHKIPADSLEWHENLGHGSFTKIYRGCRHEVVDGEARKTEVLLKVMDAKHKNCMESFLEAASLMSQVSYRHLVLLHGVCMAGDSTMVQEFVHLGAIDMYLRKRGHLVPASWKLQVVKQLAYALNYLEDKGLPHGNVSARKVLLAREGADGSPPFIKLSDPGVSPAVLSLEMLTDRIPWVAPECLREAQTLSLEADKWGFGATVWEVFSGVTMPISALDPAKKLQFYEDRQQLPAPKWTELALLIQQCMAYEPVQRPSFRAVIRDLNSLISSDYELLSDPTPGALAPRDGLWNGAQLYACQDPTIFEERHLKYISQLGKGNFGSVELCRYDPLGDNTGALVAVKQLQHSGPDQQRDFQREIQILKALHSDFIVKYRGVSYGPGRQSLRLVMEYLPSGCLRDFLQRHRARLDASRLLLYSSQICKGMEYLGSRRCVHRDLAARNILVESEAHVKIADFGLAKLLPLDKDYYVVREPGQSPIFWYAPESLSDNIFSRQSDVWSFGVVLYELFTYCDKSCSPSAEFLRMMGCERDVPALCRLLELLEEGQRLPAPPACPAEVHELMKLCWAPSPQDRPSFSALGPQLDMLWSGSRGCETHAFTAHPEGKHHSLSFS
From the text: as §1, §2
The Omnia Assay Protocol for potency assessment against JAK3 is performed in a substantially similar manner as that described in Example 25 above except that the modified JAK3-optimized reagent conditions are: • [JAK3]=5 nM, [ATP]=5 μM, [Y12-Sox]=5 μM (ATP KMapp ˜[…]).

[1] = system: BTK signaling in Ramos cells; experiment: BTK Ramos cellular assay (PLCγ2 phosphorylation); type: cell-based; conditions: Homo sapiens; for IC50: Ramos cells, PLCγ2 phosphorylation, read-out: BTK Inhibition
Protocol: Compounds 1-13 and (I-52) were assayed in Ramos human Burkitt lymphoma cells. Ramos cells were grown in suspension in T225 flasks, spun down, resuspended in 50 mls serum-free media and incubated for 1 hour. Compound was added to Ramos cells in serum free media to a final concentration of 1, 0.1, 0.01, or 0.001 μM. Ramos cells were incubated with compound for 1 hour, washed again and resuspended in 100 ul serum-free media. Cells were then stimulated with 1 μg of goat F(ab′)2 Anti-Human IgM and incubated on ice for 10 minutes to activate B cell receptor signaling pathways. After 10 minutes, the cells were washed once with PBS and then lysed on ice with Invitrogen Cell Extraction buffer. 16 μg total protein from lysates was loaded on gels and blots were probed for phosphorylation of the BTK substrate PLCγ2. […] Additional dose response inhibition of BTK signaling with I-13 is depicted in FIG. 9.

T1 sequence (P00533 25-1210): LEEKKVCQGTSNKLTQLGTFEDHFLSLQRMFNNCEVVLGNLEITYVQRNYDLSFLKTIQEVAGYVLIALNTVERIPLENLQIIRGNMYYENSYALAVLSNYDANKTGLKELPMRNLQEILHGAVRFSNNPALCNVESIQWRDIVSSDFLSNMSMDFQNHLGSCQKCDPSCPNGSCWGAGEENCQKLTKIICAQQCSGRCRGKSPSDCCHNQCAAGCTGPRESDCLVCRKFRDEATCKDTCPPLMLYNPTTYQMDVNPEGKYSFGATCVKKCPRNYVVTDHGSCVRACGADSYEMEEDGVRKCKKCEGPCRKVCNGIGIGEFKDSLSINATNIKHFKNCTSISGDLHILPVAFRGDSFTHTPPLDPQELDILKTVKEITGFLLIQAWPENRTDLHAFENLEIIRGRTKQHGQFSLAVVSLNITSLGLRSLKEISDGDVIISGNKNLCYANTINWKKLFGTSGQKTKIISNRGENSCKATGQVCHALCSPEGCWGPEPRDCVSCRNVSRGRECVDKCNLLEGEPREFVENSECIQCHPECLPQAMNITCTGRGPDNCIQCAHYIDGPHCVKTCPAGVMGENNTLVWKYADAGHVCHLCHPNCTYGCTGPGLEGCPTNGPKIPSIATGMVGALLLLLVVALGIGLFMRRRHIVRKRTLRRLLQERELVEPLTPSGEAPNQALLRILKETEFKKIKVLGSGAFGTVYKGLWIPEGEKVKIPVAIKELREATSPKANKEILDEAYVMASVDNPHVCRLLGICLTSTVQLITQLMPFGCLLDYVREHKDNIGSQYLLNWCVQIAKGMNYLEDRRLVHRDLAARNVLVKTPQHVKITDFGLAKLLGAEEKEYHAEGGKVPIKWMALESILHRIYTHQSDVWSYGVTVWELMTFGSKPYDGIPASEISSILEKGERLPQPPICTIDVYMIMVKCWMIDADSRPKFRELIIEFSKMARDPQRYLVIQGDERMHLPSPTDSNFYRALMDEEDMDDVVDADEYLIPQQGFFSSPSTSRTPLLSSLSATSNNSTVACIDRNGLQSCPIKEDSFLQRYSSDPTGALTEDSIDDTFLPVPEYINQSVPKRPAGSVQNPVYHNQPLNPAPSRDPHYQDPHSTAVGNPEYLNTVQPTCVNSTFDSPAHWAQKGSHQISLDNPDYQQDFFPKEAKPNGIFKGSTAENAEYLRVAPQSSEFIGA
Sequence of ErbB1 (P00533 25-1210): as above
Sequence of BTK (Q06187 whole entry): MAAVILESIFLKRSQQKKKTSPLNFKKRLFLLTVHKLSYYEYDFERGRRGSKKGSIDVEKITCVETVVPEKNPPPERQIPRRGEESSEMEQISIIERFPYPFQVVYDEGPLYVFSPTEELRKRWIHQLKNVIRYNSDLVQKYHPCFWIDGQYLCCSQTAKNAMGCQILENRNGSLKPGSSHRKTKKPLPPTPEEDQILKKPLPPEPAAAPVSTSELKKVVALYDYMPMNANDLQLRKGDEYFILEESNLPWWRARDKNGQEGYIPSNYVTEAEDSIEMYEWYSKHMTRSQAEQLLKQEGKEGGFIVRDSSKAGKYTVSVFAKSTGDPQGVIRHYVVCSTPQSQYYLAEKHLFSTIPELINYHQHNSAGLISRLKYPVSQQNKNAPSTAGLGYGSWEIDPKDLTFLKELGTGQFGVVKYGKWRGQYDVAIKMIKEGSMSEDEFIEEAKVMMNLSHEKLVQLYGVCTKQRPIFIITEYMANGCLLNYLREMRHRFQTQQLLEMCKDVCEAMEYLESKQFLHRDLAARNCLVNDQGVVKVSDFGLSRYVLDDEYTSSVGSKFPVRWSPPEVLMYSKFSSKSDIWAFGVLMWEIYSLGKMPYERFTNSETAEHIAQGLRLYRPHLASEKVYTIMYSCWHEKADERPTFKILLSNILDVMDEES
T3 sequence (P00533 25-1210 T790M/L858R): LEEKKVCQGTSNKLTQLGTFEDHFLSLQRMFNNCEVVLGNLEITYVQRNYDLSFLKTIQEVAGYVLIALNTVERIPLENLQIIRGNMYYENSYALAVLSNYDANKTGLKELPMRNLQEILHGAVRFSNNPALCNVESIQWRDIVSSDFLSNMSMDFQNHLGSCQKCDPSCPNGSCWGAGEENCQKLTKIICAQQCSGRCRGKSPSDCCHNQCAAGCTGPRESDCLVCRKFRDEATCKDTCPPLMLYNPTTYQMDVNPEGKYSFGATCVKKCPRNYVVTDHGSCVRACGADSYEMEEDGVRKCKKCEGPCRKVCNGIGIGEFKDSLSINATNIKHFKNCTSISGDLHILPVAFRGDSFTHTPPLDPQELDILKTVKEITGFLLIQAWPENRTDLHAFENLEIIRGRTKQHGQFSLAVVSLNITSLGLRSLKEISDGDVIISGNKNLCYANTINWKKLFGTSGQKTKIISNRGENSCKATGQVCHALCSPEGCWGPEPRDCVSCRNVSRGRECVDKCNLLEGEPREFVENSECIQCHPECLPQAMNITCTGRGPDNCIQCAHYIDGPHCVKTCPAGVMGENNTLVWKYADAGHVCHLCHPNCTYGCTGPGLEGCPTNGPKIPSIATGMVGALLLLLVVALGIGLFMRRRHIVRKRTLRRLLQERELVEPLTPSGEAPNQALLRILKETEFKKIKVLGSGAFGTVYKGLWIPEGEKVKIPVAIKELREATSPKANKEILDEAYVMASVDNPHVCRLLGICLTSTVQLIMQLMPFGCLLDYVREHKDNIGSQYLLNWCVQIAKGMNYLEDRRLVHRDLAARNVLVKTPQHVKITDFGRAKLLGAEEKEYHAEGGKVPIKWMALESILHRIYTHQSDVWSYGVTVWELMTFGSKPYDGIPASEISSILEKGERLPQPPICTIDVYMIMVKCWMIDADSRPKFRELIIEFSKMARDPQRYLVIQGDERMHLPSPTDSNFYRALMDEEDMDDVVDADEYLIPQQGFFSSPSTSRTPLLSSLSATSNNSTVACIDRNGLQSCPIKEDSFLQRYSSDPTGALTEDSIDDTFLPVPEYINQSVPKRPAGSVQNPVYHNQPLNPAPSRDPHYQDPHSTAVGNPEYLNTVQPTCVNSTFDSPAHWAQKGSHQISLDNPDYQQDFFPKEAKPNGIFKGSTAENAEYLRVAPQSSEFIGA

Row | SMILES | IC50 (EGFR (WT)) | IC50 (BTK) | IC50 (ITK) | IC50 (EGFR (T790M/L858R)) | inhibition at 1 µM (ErbB1) | IC50 (JAK3) | inhibition at 1 µM ([1]; Ramos, at 1 μM, 1 hour) | IC50 [1]
1 | CC=CC(=O)c1cccc(Nc2cc(Nc3ccc(Oc4ccccc4)cc3)ncn2)c1 (mixture of isomers) [I-89, (E,Z)-1-(3-(6-(4-phenoxyphenylamino)pyrimidin-4-ylamino)phenyl)but-2-en-1-one] | ≤ 10 nM | ≤ 10 nM | 100 to 1000 nM | – | – | – | – | –
2 | C=CS(=O)(=O)Nc1cccc(Nc2cc(Oc3cccc(C(F)(F)F)c3)ncn2)c1 [I-10] | ≤ 10 nM | 100 to 1000 nM | ≥ 10000 nM | 100 to 1000 nM | 96% | 100 to 1000 nM | – | –
3 | C=CC(=O)Nc1cccc(Nc2cc(N3CCc4ccccc43)ncn2)c1 [I-14] | ≤ 10 nM | 100 to 1000 nM | 1000 to 10000 nM | 10 to 100 nM | 96% | ≤ 10 nM | – | –
4 | C=CC(=O)Nc1cccc(Nc2cc(N(C)c3ccccc3)ncn2)c1 [I-15, N-{3-[6-(N-methyl-N-phenylamino)-pyrimidin-4-ylamino]phenyl}-2 propenamide] | ≤ 10 nM | 10 to 100 nM | 1000 to 10000 nM | 10 to 100 nM | 98% | 10 to 100 nM | – | –
5 | CN(C)C/C=C/C(=O)Nc1cccc(Nc2cc(Nc3ccc(F)c(Cl)c3)ncn2)n1 [I-52] | ≤ 10 nM | ≤ 10 nM | – | – | – | ≤ 10 nM | 50% | –
6 | C=CC(=O)Nc1cccc(Nc2cc(Oc3cccc(C)c3)ncn2)n1 [I-65)] | – | – | – | – | – | – | – | ≤ 10 nM
7 | C=CC(=O)Nc1cccc(Nc2cc(Oc3ccc(Oc4ccccc4)cc3)ncn2)n1 [I-66)] | – | – | – | – | – | – | – | ≤ 10 nM
8 | CC#CC(=O)c1cccc(Nc2cc(Nc3ccc(Oc4ccccc4)cc3)ncn2)c1 [I-88, 1-(3-(6-(4-phenoxyphenylamino)pyrimidin-4-ylamino)phenyl)but-2-yn-1-one] | ≤ 10 nM | ≤ 10 nM | 10 to 100 nM | – | – | – | – | –
9 | C=CC(=O)Nc1cccc(Nc2cc(Oc3cccc(OC)c3)ncn2)n1 [I-90, N-(6-(6-(3-methoxyphenoxy)pyrimidin-4-ylamino)pyridine-2-yl)acrylamide] | ≤ 10 nM | ≤ 10 nM | 100 to 1000 nM | – | – | – | – | –
10 | C=CC(=O)Nc1cccc(Nc2cc(Oc3ccc4c(c3)OCCO4)ncn2)n1 [I-95, N-(6-(6-(2,3-dihydrobenzo[b][1,4]dioxin-6-yloxy)pyrimidin-4-ylamino)pyridin-2-yl)acrylamide] | ≤ 10 nM | ≤ 10 nM | ≥ 10000 nM | – | – | – | – | ≤ 10 nM
11 | COc1ccc(NC(=O)/C=C/CN(C)CCCCNC(=O)OC(C)(C)C)cc1Nc1cc(Nc2ccc(F)c(Cl)c2)ncn1 [I-98] | ≤ 10 nM | 100 to 1000 nM | ≥ 10000 nM | – | – | – | – | –
12 | COc1ccc(NC(=O)/C=C/CN(C)CCCCNC(=O)CCCC(=O)NCCCOCCOCCOCCCNC(=O)CCCC[C@@H]2SC[C@@H]3NC(=O)N[C@@H]32)cc1Nc1cc(Nc2ccc(F)c(Cl)c2)ncn1 [I-99, N^1-(4-(((E)-4-(3-(6-(3-chloro-4-fluorophenylamino)pyrimidin-4-ylamino)-4-methoxyphenylamino)-4-oxobut-2-enyl)(methyl)amino)butyl)-N^5-(15-oxo-19-((3aS,4S,6aR)-2-oxohexahydro-1H-thieno[3,4-d]imidazol-4-yl)-4,7,10-trioxa-14-azanonadecyl)glutaramide] | ≤ 10 nM | ≤ 10 nM | – | – | – | – | – | ≤ 10 nM
13 | C=CC(=O)Nc1cc(Nc2cc(Oc3ccc(Oc4ccccc4)cc3)ncn2)ccc1N1CCOCC1 [I-101, N-(2-morpholino-5-(6-(4-phenoxyphenoxy)pyrimidin-4-ylamino)phenyl)acrylamide] | ≤ 10 nM | ≤ 10 nM | 100 to 1000 nM | – | – | – | – | –
